From patent US20030216471A1, “Retinoid formulations for aerosolization and inhalation” (priority 2003, published 2003)
Values joined by “and” are separate entries in the source; they are usually repeats but may differ in a detail not shown here. Equal values may be shown once.

Assays:
albumin = albumin (Homo sapiens, UniProt P02768); settings: systemic administration, reported; cited from earlier work
RAR α [1] = assay: Western blot of rat lung, inhaled 13-cis RA (experiment A), RAR α; type: in vivo; settings: for upregulation of lung tissue RAR (first named, α): daily deposited dose 6.4 mg/kg/day
Protocol: (§1) The experimental groups were as follows (Table 4):1. Vehicle (10/9 mix of PEG 300 and Ethanol with 0.5% of ascorbic acid and 0.5% phosphatidyl choline) control, day 1: rats (19) inhaled vehicle for 2 hr for one day; 2. […] Vehicle control, day 28: rats (16) inhaled vehicle as for group 1 for a period of 28 days; 5.
(§2) Tissues were collected, frozen in dry ice and kept at −70° C. until used. 500 mg aliquots were diced in small pieces and homogenized in 300 μl of cold PBS, using the hand held homogenizer for 2˜3 minutes. Sample and washes were centrifuged at 5000×g for 20 minutes. The pellet was suspended in 400 μl of ice-cold Buffer A [2 μl 0.5M EDTA, 10 μl 100 mM EGTA, 50 μl 100MM PMSF, 10 μl 1M DTT, 10 ml (10 mM HEPES pH 7.9+10 mM KCl)], and left at ice temperature for 15 minutes. 25 μl of 10% solution of NP-40 was added and samples were mixed in a vortex vigorously for 10 seconds. Samples were centrifuged at 14,000×g for 1 minute at 4° C. and the pellet treated once more in this fashion (resuspended etc.). The supernatant was removed and 100 μl of ice-cold Buffer C [4 μl 0.5M EDTA, 20 μl 100 mM EGTA, 20 μl 100 mM PMSF, 2 μl 1M DTT, 2 ml (20 mM HEPES pH 7.9+0.4M NaCl)] was added. Pellets were resuspended by tapping gently on the bottom of the Eppendorf tubes. Samples were rocked vigorously in a bucket of ice on an orbital shaker for 30 minutes. Samples were centrifuged at 14,000×g for 5 minutes at 4° C.
(§3) Samples were prepared by adding one part of the Sample Buffer to one part of the sample and mixing well. Samples were heated at 95° C. for 5 minutes to induce denaturation. 5 μl of Rainbow Standard and 5 μl of Biotinylated Molecular Marker were added to parallel wells. 20 μg protein per sample was loaded in each lane. Electrophoresis was performed with voltage set at 125V for about 1˜1.5 hours. Gel transfer was executed at 25V for 2 hours. The membrane was stained in Ponceau S. for 5 minutes and destained with one wash of 5% acetic acid. The membrane was then washed in TBS solution until the staining disappeared. […]

RAR α [2] = assay: RAR induction in lungs of A/J mice exposed to isotretinoin aerosol, RAR α; type: in vivo, mouse; settings: inhaled mid dose, urethane-treated A/J mice
Protocol: Antibodies: Polyclonal antibodies to RARα, β and γ (Santa Cruz Biotechnology Inc., San Francisco, Calif.) were used with a BM Chemiluminescence Western Blotting Kit (Mouse/Rabbit) (Boehringer Mannheim Corporation, Indianapolis).
Experimental Design: Five lungs each from the urethane-treated vehicle, low dose, and mid dose animals were snap frozen in liquid nitrogen and stored at −70° C. for determination of RARs α, β and γ by Western Blot Analysis. […] The lungs were homogenized and the RARs were determined by standard Western Blotting (21, 22).
Samples: Lung tissue was collected, frozen on dry ice and kept at −70° C. until used. A 500 mg portion was diced in small pieces and homogenized in 300 μl of cold PBS using a hand held homogenizer for 2-3 min. Samples were centrifuged at 500 rpm for 5 min or until the supernatant was clear. The pellet was suspended in 400 μl of cold Buffer A [2 μl 0.5 M EDTA, 10 μl mM EGTA, 50 μl 100 mM PMSF, 10 μl 1M DTT, 10 ml (10 mM HEPES pH 7.9+10 mM KCl)], and left at ice temperature for 15 min. A 25 μl volume of 10% solution of NP−40 was added and the samples were mixed in a vortex vigorously for 10 sec. Samples were centrifuged at 14,000 rpm for 1 min at 4° C. and the pellet was treated once more in this fashion. […]

TGase II = TGase II assay of rat lung tissue after inhaled 13-cis RA (experiment B); type: in vivo
Protocol: Male rats (n=23) (Sprague-Dawley from Charles River) were divided into six experimental groups and were given varying amounts of 13-cis RA through an inhalant apparatus once daily for different times each day for 14 days. The experimental groups were as follows (Table 1): 1. Vehicle control: rats (3) inhaled vehicle for 240 minutes; 2. Low dose 13-cis RA: rats (4) inhaled a solution containing 13-cis RA at a concentration of 62.2 μg/liter (inhaled dose 115.0 μg/kg body weight) in 5 minutes; 3. Low-Middle dose 13-cis RA: rats (4) inhaled a solution containing 13-cis RA at a concentration of 62.2 μg/liter (inhaled dose 334.4 μg/kg body weight) in 15 minutes; 4.Middle dose 13-cis RA: rats (4) inhaled a solution containing 13-cis RA at a concentration of 62.2 μg/liter (inhaled dose 1012.3 μg/kg body weight) in 45 minutes; 5. Middle-High dose 13-cis RA: rats (4) inhaled a solution containing 13-cis RA at a concentration of 62.2 μg/liter (inhaled dose 2843.4 μg/kg body weight) in 120 minutes; 6. High dose 13-cis RA:rats (4) inhaled a solution containing 13-cis RA at a concentration of 62.2 μg/liter (inhaled dose 5935.6 μg/kg body weight) in 240 minutes.
Enzyme assay mixtures were prepared by adding 80 μl of SUBSTRATE mixture (322.8 μl H2O, 120 μl 0.5M NaBorate, 60 μl 0.01M EDTA, 60 μl 0.1M CaCl2, 6 μl 1M DTT, 240 μl dimethyl casein, 30 μl Triton X-100, 1.21 μl [^3H]-Putrescine, 120 μl Putrescine) to 20 μl sample, 20 μl scraping buffer for blank control, 20 μl (18 μl scraping buffer+2 μl TGase II) for positive control. Samples were mixed in 15 ml tubes, the tubes were shaken before putting them into a 28° C. water bath for 30 minutes. Reactions were slowed down in an ice bath. 80 μl of the incubation mixture was adsorbed onto paper disks. These were immediately dropped into cold 10% TCA (0.1% Putrescine) and washed with agitation for 7 minutes, followed by 2 additional washes with 5% TCA (0.05% putrescine) for 5-7 minutes, and once more with cold (−20° C.) 95% ethanol for 5 minutes. Paper disks were dried and placed into 5 ml Aquasol, and counted in a Liquid Scintillation Counter. Protein concentration determination was conducted by the Bradford method.
Cannon (Cannon et al., 1983).

RAR γ = assay: Western blot of rat lung, inhaled 13-cis RA (experiment A), RAR γ; type: in vivo; settings: for upregulation of lung tissue RAR (third named, γ): daily deposited dose 6.4 mg/kg/day
Protocol: as §1, §2, §3

[3] = daily deposited dose 1.9 mg/kg/day, day 28

albumin, sequence (P02768 25-609, species assumed): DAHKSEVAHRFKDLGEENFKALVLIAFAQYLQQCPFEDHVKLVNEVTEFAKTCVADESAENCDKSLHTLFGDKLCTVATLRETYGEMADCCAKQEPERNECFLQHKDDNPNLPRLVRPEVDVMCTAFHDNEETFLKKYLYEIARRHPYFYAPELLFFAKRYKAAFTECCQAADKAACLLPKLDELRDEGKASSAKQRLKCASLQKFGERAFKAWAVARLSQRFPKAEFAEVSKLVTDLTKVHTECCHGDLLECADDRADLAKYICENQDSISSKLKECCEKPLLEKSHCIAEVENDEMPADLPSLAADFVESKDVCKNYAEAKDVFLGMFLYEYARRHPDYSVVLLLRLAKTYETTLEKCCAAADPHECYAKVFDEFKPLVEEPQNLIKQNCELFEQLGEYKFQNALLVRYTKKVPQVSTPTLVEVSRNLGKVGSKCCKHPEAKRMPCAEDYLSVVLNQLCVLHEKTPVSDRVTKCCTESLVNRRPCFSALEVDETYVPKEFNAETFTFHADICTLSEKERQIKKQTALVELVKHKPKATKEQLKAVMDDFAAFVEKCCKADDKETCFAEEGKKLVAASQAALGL

## CC1=C(/C=C/C(C)=C/C=C/C(C)=C\C(=O)O)C(C)(C)CCC1 [13-cis RA, 13-cis-Retinoic Acid]
albumin
  present as albumin bound: 99%
RAR α [1]; [3]
  induction of lung RAR (first named, α): 4.7 fold
RAR α [1]; day 1
  upregulation of lung tissue RAR (first named, α): 3.4 fold
RAR α [1]; day 17
  upregulation of lung tissue RAR (first named, α): 4.2 fold
RAR α [2]
  upregulation of lung tissue RAR α over solvent (vehicle): 3.9 fold
TGase II; High dose, 240 min daily, 14 days
  TGase II assay, rat lung: 8053 DPM/μg protein
TGase II; High dose: 1872 μg/kg total deposited, 240 min daily, 14 days
  TGase II assay, rat lung: 0.1025+/−0.004 picomoles/μg protein/30 min and 0.1025 ± 0.004 picomoles/μg protein/30 min
TGase II; Low dose, 5 min daily, 14 days, vehicle 3535
  TGase II assay, rat lung: 7503 DPM/μg protein
TGase II; Low dose: 39 μg/kg total deposited, 5 min daily, 14 days, vehicle 0.0450
  TGase II assay, rat lung: 0.0955+/−0.004 picomoles/μg protein/30 min and 0.0955 ± 0.004 picomoles/μg protein/30 min
TGase II; Low-Middle dose, 15 min daily, 14 days
  TGase II assay, rat lung: 9035 DPM/μg protein
TGase II; Low-Middle dose: 117 μg/kg total deposited, 15 min daily, 14 days
  TGase II assay, rat lung: 0.1150+/−0.006 picomoles/μg protein/30 min and 0.1150 ± 0.006 picomoles/μg protein/30 min
TGase II; Middle dose, 45 min daily, 14 days
  TGase II assay, rat lung: 10449 DPM/μg protein
TGase II; Middle dose: 351 μg/kg total deposited, 45 min daily, 14 days
  TGase II assay, rat lung: 0.1330+/−0.009 picomoles/μg protein/30 min and 0.1330 ± 0.009 picomoles/μg protein/30 min
TGase II; Middle-High dose, 120 min daily, 14 days
  TGase II assay, rat lung: 8014 DPM/μg protein
TGase II; Middle-High dose: 936 μg/kg total deposited, 120 min daily, 14 days
  TGase II assay, rat lung: 0.1020+/−0.005 picomoles/μg protein/30 min and 0.1020 ± 0.005 picomoles/μg protein/30 min
TGase II; maximum, inhaled dose 1012.3 μg/kg (45 minutes of inhalation), 14 days
  stimulation of lung TGase activity: 2.9 Fold
TGase II; with larger amounts of inhaled retinoid
  stimulation of lung TGase activity: 1.2 fold
RAR γ; [3]
  induction of lung RAR (third named, γ): 8.1 fold
RAR γ; day 1
  upregulation of lung tissue RAR (third named, γ): 9.7 fold
RAR γ; day 17
  upregulation of lung tissue RAR (third named, γ): 12.9 fold
